This passage reports half-life results from PubChem BioAssay AID1508591.

Bounds are passed on as bounds.

The conditions of the series: rat; liver microsomes; pH 7.4; 15.0 min; 1.0 µM. Background: Microsomes from liver hold many membrane-bound enzymes, among them those of drug oxidation.

One may read the half-life as the time in which the quantity being followed falls by half. A lower half-life goes with fast loss. `COC(=O)c1c(NC(=O)Cc2coc3cc(C)ccc23)sc2c1CCC2` returned a half-life of 2.31 min.

For the compound `CC(=O)Nc1ccc(-c2csc(N3CCC(C(N)=O)CC3)n2)cc1`, the half-life was over 30 min.

Turning to `COc1ccccc1C(=O)Nc1ccccc1C(=O)Nc1cccc(C(F)(F)F)c1`, the half-life is over 30 min.

Compound `CCOC(=O)c1ccc(N2C(=O)c3n[nH]c(-c4ccco4)c3C2c2ccc(C)cc2)cc1` (stereo not drawn) had a half-life of 8.24 min.

Take `O=S(=O)(Nc1ccc(-c2ccccc2)cc1)c1ccc(NCc2ccc(Br)cc2O)cc1`: the half-life stood at 21 min.

Regarding `Fc1ccc(N2CCCN(CC3[C@H]4CNC[C@@H]34)CC2)cc1` (stereo partly drawn), the half-life was over 30 min.

With `COc1ccc(C)cc1NS(=O)(=O)c1ccc(-c2cnc(C3CC3)o2)cc1`, the half-life is 3.38 min.

With `O=S(=O)(Nc1ccc(S(=O)(=O)Nc2nccs2)cc1)c1ccc2ccccc2c1`, the half-life was over 30 min.

In turn, `O=C(NCc1ccc(N2CCCC2)nc1)c1cc(Cl)ccc1O` showed a half-life of 1.9 min.

For the compound `CCOc1ccc(CCNC(=O)c2cc3sccc3n2CCN2CCN(C)CC2)cc1OCC`, the half-life amounted to 6.2 min.

Turning to `O=C(NCCCN1CCCC1=O)c1ccc(-c2ncc3cnc(-c4ccccc4)cn23)cc1`, the half-life is over 30 min.

`CN1C(=O)c2ccccc2[S@](=O)c2ccc(C(=O)NCc3cccnc3)cc21` returned a half-life of over 30 min.

In turn, `COC(=O)c1ccc(Nc2nc(-c3ccncc3)nc3ccccc23)cc1OC` gave a half-life of 9.5 min.

In turn, `CN(C)c1cccc(-c2cnc(N3CCC(C(N)=O)CC3)nc2)c1` returned a half-life of 16.8 min. This half-life is about 1.8-fold higher than that of the compound before.

Compound `Cc1c(C(=O)NN2CCCCC2)nn(-c2ccc(Cl)cc2Cl)c1-c1ccc(Cl)cc1` came in with a half-life of 5.9 min.

The compound `O=C1c2ccccc2-n2c1nc1ccccc1c2=O` showed a half-life of 21.3 min.

In the case of `O=[S+]([O-])(Nc1ccc(C2CCNCC2)cc1)c1ccc(NCc2ccc(Br)cc2O)cc1`, the half-life is over 30 min.

The compound `N[C@@H](CSCc1ccccc1)C(=O)O` returned a half-life of over 30 min.

Consider `CO[C@@H]1/C=C\O[C@@]2(C)Oc3c(C)c(O)c4c(c3C2=O)C(=N[C@H]2CC[C@H](O)O[C@@H]2C)C=C(NC(=O)/C(C)=C\C(=O)[C@@H]2C[C@@H]2[C@@H](O)[C@H](C)[C@@H](O)[C@H](C)[C@H](OC(C)=O)[C@@H]1C)C4=O`, for which the half-life came out at 9.93 min.

In the case of `COc1nccc(-c2nc(Nc3ccc(F)c(F)c3)c3ccccc3n2)c1Cl`, the half-life is over 30 min.

For `C[C@@H](NC(=O)c1ncnc(N)c1Cl)c1ncc(C(=O)Nc2cc(C(F)(F)F)c(Cl)cn2)s1`, the half-life is over 30 min.

Turning to `Cc1cccc(CS(=O)(=O)c2ncc(Cl)c(C(=O)Nc3nc4ccc(F)cc4s3)n2)c1`, the half-life stood at 1.43 min.

`Fc1cc(Nc2nc(-c3ccncc3)nc3ccccc23)ccc1-c1ccc(F)c(F)c1F` had a half-life of 24 min.

For the compound `O=C1/C(=C\c2ccccc2)C[C@@]2(O)C3Cc4ccc(O)c5c4[C@@]2(CCN3CC2CC2)[C@H]1O5`, the half-life is 3.37 min. This half-life is about 7.1-fold lower than that of the compound before.

In the case of `Cc1ccc(-c2ccnc(N3CCC(C(N)=O)CC3)n2)cc1`, the half-life amounted to 2.35 min.

Compound `COc1ccc2[nH]c3c(C)c4ccncc4c(C)c3c2c1` had a half-life of over 30 min.

As for `Cc1ccc(S(=O)(=O)Nc2cc(Cl)ccc2C(=O)Nc2nc(-c3ccccc3)cs2)cc1`, the half-life came to 7.65 min.

The compound `C=CC(=O)Nc1cccc(Oc2nc(Nc3ccc(N4CCN(C)CC4)cc3)ncc2Cl)c1` came in with a half-life of 3.06 min.

For `CC1=C[C@@H](CN2C(=O)C(C)=C(C)C2=O)[C@H](C(C)C)C[C@H]1Cc1nc2c(C)cccc2[nH]1`, the half-life came out at 1.3 min.

Compound `Oc1ccc(CNc2cccc(F)c2F)c2cccnc12` registered a half-life of 6.35 min.

The compound `Clc1cccc(COc2cncc(N3CCNCC3)n2)c1` showed a half-life of 2.55 min.

Take `CCOc1cc(F)c(CCNC(=O)c2cc3sccc3n2Cc2ccccc2)cc1OCC`: the half-life stood at 1.8 min.

In the case of `COc1ccc(-n2nc(C)c([C@@H]3C=C[C@@H](NCc4ccc(F)cc4)C3)c2C)cc1`, the half-life amounted to 6.66 min.

Take `COC(=O)c1ccc(Oc2nc3c(c(=O)n(C)c(=O)n3C)n2CCC(C)C)cc1`: the half-life amounted to 2.7 min. This half-life lies about 2.5-fold lower than the previous one.

Consider `NCC1CCC(C(=O)Oc2ccc(CCC(=O)O)cc2)CC1` (stereo not drawn), for which the half-life was over 30 min.

Consider `COc1ccc(NC(=O)c2[nH]c(C)c(C(C)=O)c2C)cc1`, for which the half-life was over 30 min.

`Cc1ccc(S(=O)(=O)Nc2ccccc2C(=O)Nc2nc(-c3ccccc3)c(C)s2)cc1`: the half-life turned out to be 6.3 min.

As to `NC(=O)C1CCN(c2nc(-c3cccc4sc5ccccc5c34)cs2)CC1`, the half-life is over 30 min.

`NC1(c2ccc(NC(=O)c3ccnc(-c4cc(C(=O)O)ccn4)c3)cc2)CC1` gave a half-life of over 30 min.

Compound `CCOc1ccc(CCNC(=O)c2cc3cnccc3n2Cc2cccc(C)n2)cc1OCC` registered a half-life of 29 min.

As for `C=Cc1ccc(Cn2c(C(=O)O)c(CNCc3ccccc3)c3ccc(OC)cc32)cc1`, the half-life amounted to 9.8 min.

For `Cc1ccc2oc(NC3=NC4(CCCC4)C4=C(CCCC4=O)N3)nc2c1`, the half-life worked out at 2.7 min. This half-life is about 3.6-fold lower than that of the compound before.

Consider `c1ccc2c(NC3CCCCC3)nc(-c3ccncc3)nc2c1`, for which the half-life was 10 min. This half-life lies about 3.7-fold higher than the previous one.

Turning to `Cc1cccc2nc(NC3=NC(c4[nH]ncc4Cl)C4=C(CCCC4=O)N3)oc12` (stereo not drawn), the half-life is 1.6 min. Against the preceding compound, the half-life is about 6.2-fold lower.

With `Cc1ccc(S(=O)(=O)Nc2ccccc2C(=O)Nc2nc(-c3ccccc3)cs2)cc1`, the half-life turned out to be 2.4 min.

As to `Cc1ccnc(NC(=S)N2CCN(c3ncc(C(F)(F)F)cc3Cl)CC2)c1`, the half-life was over 30 min.

For the compound `Clc1ccccc1-c1nnc2sc(-c3ccc4c(c3)OCO4)nn12`, the half-life is 1.7 min.

Consider `COc1ccc(-n2nc(C3CCCN(C(=O)c4ccccc4F)C3)[nH]c2=O)cc1` (stereo not drawn), for which the half-life is over 30 min.

Turning to `Cc1ccc(-c2cc(C(=O)Nc3ccc(S(=O)(=O)N(C)C)cc3)c3ccccc3n2)cc1C`, the half-life came out at 3.4 min.

Take `O=c1c(-c2cccs2)ccc2n1C[C@H]1C[C@@H]2CN(C2CCOCC2)C1`: the half-life was 14.6 min.

`Cc1ccc(-c2cc(C(=O)Nc3cccc(S(=O)(=O)Nc4nccs4)c3)c3ccccc3n2)cc1C` showed a half-life of 14 min.

Consider `CCCCn1cnc2cc(NCc3ccc(OCC)cc3)ccc21`, for which the half-life was 10.3 min.

In turn, `COc1ccc2c(c1)CN(C(=O)CCN1CCC(Cc3ccccc3)CC1)CCS2` had a half-life of 2.27 min.

In the case of `Cc1ccc(-c2cc(C(=O)NCc3cnn(C)c3)c3cc(Br)ccc3n2)cc1`, the half-life was over 30 min.

Compound `O=C(Nc1cccc(Cc2ccccc2)c1)c1ccc(-c2cccc([N+](=O)[O-])c2)o1` gave a half-life of 2.5 min.

As for `O=C(Nc1ccc(S(=O)(=O)Nc2nccs2)cc1)c1ccnc2ccccc12`, the half-life is over 30 min.

`Cc1noc(C)c1-c1cc2c(cc(C)n2C)c(-c2cnn(C)c2)n1` yielded a half-life of over 30 min.

In turn, `CC(=O)c1c(C)[nH]c(C(=O)Nc2cccc(S(=O)(=O)N3CCCCCC3)c2)c1C` gave a half-life of 1.6 min.

Take `Fc1cc(Nc2nc(-c3ccncc3)nc3ccccc23)ccc1-c1cc(F)c(F)c(F)c1`: the half-life is over 30 min.

Take `Oc1cccc2nc3ccccc3nc12`: the half-life is 8.9 min.

Take `Cc1noc(C)c1-c1ccc(-c2cc(C(N)=O)c(NC(N)=O)s2)c(O[C@H]2CCNC2)c1`: the half-life was over 30 min.

In turn, `N#Cc1ccc(S(=O)(=O)Nc2cnccc2C(=O)Nc2nc(-c3ccccc3)cs2)cc1` displayed a half-life of over 30 min.

`Cc1ccc(S(=O)(=O)NCCC(=O)Nc2nc(-c3ccccc3)cs2)cc1`: the half-life was 2.4 min.

Compound `O=c1[nH]c(C2CCCN(CC3CCCCC3)C2)nn1-c1ccc(Cl)cc1` (stereo not drawn) yielded a half-life of over 30 min.

Turning to `CC1(C)CC2CC(C)(CN2S(=O)(=O)c2ccc(C(=O)Nc3cccc(S(=O)(=O)N4CCOCC4)c3)cc2)C1` (stereo not drawn), the half-life was found to be 2.8 min.

`Fc1cnc(-c2ccccc2C(F)F)nc1NCC1CCN(c2cnccn2)CC1`: the half-life stood at 3.4 min. This half-life and that of the compound before are within 1.5-fold of each other.

Turning to `O=C(Nc1ccc(F)cc1F)c1cc(-c2ccc[nH]2)n[nH]1`, the half-life was 16.7 min. This half-life lies about 4.9-fold higher than the previous one.

Take `CC(=O)c1c(C)[nH]c(C(=O)Nc2cccc([S+](=O)([O-])Nc3ccccc3)c2)c1C`: the half-life is 4.2 min.

The compound `COc1cc2c(cc1NC(=O)COc1ccc(Cl)cc1)oc1ccccc12` displayed a half-life of 8.77 min.

For `COc1ccc(NC(=O)c2[nH]c(C)c(C(C)=O)c2C)cc1[S+](=O)([O-])Nc1ccccc1C#N`, the half-life is over 30 min.

For the compound `CCOC(=O)c1ccc(-n2cnc3cc(C(=O)N4CCCCC4)ccc32)cc1`, the half-life is 1.7 min.

`NCC(=O)Nc1cncc(-c2nn3c(=O)cc(N4CCNCC4)nc3s2)c1` yielded a half-life of over 30 min.

In turn, `O=S(=O)(Nc1cnc2ccccc2c1)c1ccc(NCc2ccc(Br)cc2O)cc1` came in with a half-life of 18 min.

As for `Cc1cc(C)nc(NC(=S)N2CCN(c3cc(C(F)(F)F)nc4ccccc34)CC2)c1`, the half-life is over 30 min.

For `COc1ccc(CN2CCc3c(c(=O)n4ncc(C(=O)N5CCN(c6ccccc6OC)CC5)c4n3C)C2)cc1`, the half-life is 1.97 min.

Consider `CCC[C@@H]1CN(C(=O)c2ccc(-c3ccc(C)o3)cc2)C[C@H]1NC(C)=O`, for which the half-life was determined as 13.2 min.

Regarding `O=C(NCc1ccccc1)C1CCN(c2nc(-c3ccc(Br)cc3)cs2)CC1`, the half-life is 1.75 min.

`COc1cc2nc(N3CCCC3)nc(NCCCCCN3CCCC3)c2cc1OC` had a half-life of over 30 min.

Regarding `O=C(Nc1nnc(-c2cccs2)o1)c1ccc(Cl)cc1`, the half-life was 2.9 min.

`Cc1ccc(S(=O)(=O)Nc2cnccc2C(=O)Nc2nc(-c3ccccc3F)cs2)cc1` displayed a half-life of 9.9 min. This half-life is about 3.4-fold higher than that of the compound before.

Compound `CC(=O)c1c(C)[nH]c(C(=O)Nc2ccc(C)c(S(=O)(=O)Nc3ccc(Br)cc3)c2)c1C` registered a half-life of 19 min.

For the compound `COc1ccc(C2=Nn3c([n+](C)c4ccccc43)SC2)cc1`, the half-life is over 30 min.

In turn, `COc1cccc(CNc2ccc(S(=O)(=O)Nc3cc(C)on3)cc2)c1O` returned a half-life of over 30 min.

The compound `CCOC(=O)c1c(C)c(-c2ccccc2)n(CC(=O)NCc2ccccc2)c1C` registered a half-life of 2.28 min.

Compound `Cc1sc(NC(=O)Cc2ccc3c(c2)OCO3)nc1-c1ccc2c(c1)CCN2C(=O)c1ccccc1Cl` showed a half-life of 24 min. Against the preceding compound, the half-life is about 11-fold higher.

`COc1ccccc1-c1nc(NCc2ccc(-c3cccnc3)cc2)c2ccccc2n1` showed a half-life of 4.45 min. Against the preceding compound, the half-life is about 5.4-fold lower.

`COc1cc(-c2cc3c(nc2-c2ccccc2)nc(C(=O)NC2CCN(C)CC2)n3C)ccn1` displayed a half-life of over 30 min.

As to `CCCc1nnc(NC(=O)c2nc(S(=O)(=O)Cc3ccc(C)cc3)ncc2Cl)s1`, the half-life was determined as 5.28 min.
